Assay results: patent publication US8993260B2, “Fluorescence-based viability staining method using a membrane permeable flourescent dye and membrane impermeable fluorescence quencher” (Charles River Laboratories, Inc., priority 2012, dated 2015)

Assays:
[1] = system: viable and non-viable E. coli; assay: Viability staining of mixed viable/non-viable E. coli in solution: fluorescent probe and two PET quenchers; format: cell-based; details: 0.005 mM Oxazine 170 perchlorate, 0.4 mM p-Sulfonic calix[6]arene, 100 mM sodium ascorbate in PBS; about 5 min
Description: The viable and heat killed E. coli were preparations were prepared as described in Example 1. The heat killed E. coli suspension was then combined with the viable cell suspension and mixed by vortexing. The resulting cell suspension served as the viable and non-viable E. coli solution. A fluorescent probe-quencher stain was prepared as a solution consisting of 0.005 mM Oxazine 170 perchlorate (Sigma-Aldrich, St. Louis, Mo.), 0.4 mM p-Sulfonic calix[6]arene (TCI America, Portland, Oreg.), 100 mM Sodium ascorbate (Sigma-Aldrich, St. Louis, Mo.) in PBS. The viable and non-viable E. coli suspension was then diluted 1:1000 into the fluorescent probe-quencher solution to stain the cells. After incubation for approximately 5 minutes, a droplet of the stained cell solution was placed onto a microscope slide and imaged on a fluorescent microscope (Carl Zeiss, LLC, Thornwood, N.Y.). FIGS. 20A and 20B show a combined image of the viable and non-viable stained E. coli captured under phase contrast (FIG. 20A) as well as fluorescent conditions (excitation 575-625 nm, emission 660-710 nm) (FIG. 20B). The viable and non-viable cells were indistinguishable in phase contrast but under fluorescent conditions the viable cells were brightly fluorescent whereas the non viable cells were not.

[2] = system: viable and heat killed E. coli; assay: Viability staining of E. coli captured on a membrane: fluorescent probe and quencher wash, fluorescence microscopy; format: cell-based; details: 0.005 mM Oxazine 170 perchlorate stain, then 10 mM sodium ascorbate wash
Description: Viable and non-viable E. coli cell fractions were prepared by picking a colony cultured on a conventional media plate and then transferring the cells into Phosphate Buffered Saline (PBS). The cells then were suspended by vortexing and then were further diluted in PBS to give a turbidity equivalent to a 1.0 McFarland standard. This stock solution served as the live cell fraction. An aliquot of the live cell fraction was transferred to a glass tube that was placed into a boiling water bath for about 15 minutes to heat kill the E. coli. The tube was removed from the bath and allowed to cool to room temperature. This heat killed suspension served as the dead cell fraction. A fluorescent stain solution was prepared as a 0.005 mM solution of Oxazine 170 perchlorate (Sigma-Aldrich, St. Louis, Mo.) in PBS containing a 1:100,000 dilution of 10% w/v 0.8 μm Sky Blue latex fluorescent particles (Spherotech, Lake Forest, Ill.). A separate quencher wash solution was prepared as a 10 mM Sodium ascorbate (Sigma-Aldrich, St. Louis, Mo.) solution in PBS. […] The cells then were imaged using a fluorescent microscope (Carl Zeiss, LLC—Thornwood, N.Y.) with an excitation of 575 nm-625 nm and measured emission of 660 nm-710 nm. […]

SMILES | Permeation of the quencher through non-viable cell membranes and quenching of fluorescence [1] | Permeation of the quencher into heat killed cells (quenching of fluorescent signal) ([2]; heat killed E. coli on 0.2 μm membrane) | Permeation of the quencher into viable cells ([2]; live E. coli on 0.2 μm membrane, ex 575-625 nm, em 660-710 nm)
O=S(=O)(O)c1cc2c(O)c(c1)Cc1cc(S(=O)(=O)O)cc(c1O)Cc1cc(S(=O)(=O)O)cc(c1O)Cc1cc(S(=O)(=O)O)cc(c1O)Cc1cc(S(=O)(=O)O)cc(c1O)Cc1cc(S(=O)(=O)O)cc(c1O)C2 [p-Sulfonic calix[6]arene, 4- Sulfocalix [6]arene] | permeated the non-viable cell membranes resulting in an effective quenching of fluorescence |  | 
O=C1O[C@H]([C@@H](O)CO)C([O-])=C1O.[Na+] [sodium ascorbate, Sodium Ascorbate] | permeated the non-viable cell membranes resulting in an effective quenching of fluorescence | permeated | excluded from the viable cells
